Results on 13 molecules are retold here after ChEMBL document CHEMBL3046165, “Synthesis of new cyclic imides derivatives with potential hypolipidemic activity” (Med Chem Res, 2012).

The structures appear in SMILES notation.

In data set [1] the test system is Rattus norvegicus. The data set can be described thus: Toxicity in triton WR-1339-induced Rattus norvegicus albino Wistar (rat) hyperlipidemic model assessed as increase of serum LDL level at 150 mg/kg, po qd after 24 hr. Set-up: dose 150 mg/kg, route oral. The format is organism-based. The following applies: in vivo.
Data set [2] deals with Rattus norvegicus. Nature of the data set: Hypolipidemic activity in triton WR-1339-induced Rattus norvegicus albino Wistar (rat) hyperlipidemic model assessed as increase of serum HDL level at 150 mg/kg, po qd after 24 hr. The format is functional.
Data set [3] has as its system Rattus norvegicus. Nature of the data set: Toxicity in triton WR-1339-induced Rattus norvegicus albino Wistar (rat) hyperlipidemic model assessed as reduction of serum HDL level at 150 mg/kg, po qd after 24 hr. On the set-up: dose 150 mg/kg, route oral. The format is organism-based. The following applies: in vivo.
Data set [4] has as its system Rattus norvegicus. Nature of the data set: Toxicity in triton WR-1339-induced Rattus norvegicus albino Wistar (rat) hyperlipidemic model assessed as increase of serum total triglyceride level at 150 mg/kg, po qd after 24 hr. Set-up: dose 150 mg/kg, route oral. The following applies: in vivo. The data set is classed as organism-based.
For data set [5], the system named is Rattus norvegicus. Nature of the data set: Toxicity in triton WR-1339-induced Rattus norvegicus albino Wistar (rat) hyperlipidemic model assessed as increase of serum total cholesterol level at 150 mg/kg, po qd after 24 hr. The format is organism-based. On the set-up: dose 150 mg/kg, route oral. The following applies: in vivo.
In data set [6] the test system is Rattus norvegicus. Nature of the data set: Hypolipidemic activity in triton WR-1339-induced Rattus norvegicus albino Wistar (rat) hyperlipidemic model assessed as reduction of serum total triglyceride level at 150 mg/kg, po qd after 24 hr. The format is functional. Set-up: scale not given: the % may be the effect or the level left.
The test system of data set [7] is Rattus norvegicus. Nature of the data set: Hypolipidemic activity in triton WR-1339-induced Rattus norvegicus albino Wistar (rat) hyperlipidemic model assessed as reduction of serum total cholesterol level at 150 mg/kg, po qd after 24 hr. The format is functional. Set-up: scale not given: the % may be the effect or the level left.

As to `CC(C(=O)Nc1ccccc1)N1C(=O)c2cccc3cccc(c23)C1=O` (centres undefined), the Activity in data set [1] is 4.5%; in data set [2], 29.3%.
For the molecule `CC(C(=O)N1CCCC1)N1C(=O)c2ccccc2C1=O` (centres undefined), the Activity result is “Toxic” in data set [3], “Toxic” in data set [4], 35.5% in data set [1] and “Toxic” in data set [5].
Regarding `CC(C(=O)NCc1ccccc1)N1C(=O)c2ccccc2C1=O` (centres undefined), the Activity result in data set [3] is given as “Toxic”; in data set [4], “Toxic”; in data set [1], 35.5%; in data set [5], “Toxic”.
Take `CC(C)OC(=O)C(C)(C)Oc1ccc(C(=O)c2ccc(Cl)cc2)cc1` [FENOFIBRATE]: the figures for the Activity in data set [1], in data set [6] and in data set [7] were 13%, 20% and 23%, respectively.
`CC(C(=O)NCc1ccccc1)N1C(=O)c2cccc3cccc(c23)C1=O` (centres undefined): the Activity in data set [1] was determined as 4.5%; in data set [2], 29.3%.
Take `CC(C)NC(=O)C(C)N1C(=O)c2ccccc2C1=O` (centres undefined): the Activity entry in data set [3] was “Toxic”; in data set [4], “Toxic”; in data set [1], 35.5%; in data set [5], “Toxic”.
On to `CC(C(=O)Nc1ccccc1)N1C(=O)c2ccccc2C1=O` (centres undefined), for which the Activity in data set [6] and in data set [7] was less than 24% throughout.
`CCCNC(=O)C(C)N1C(=O)c2ccccc2C1=O` (centres undefined): the Activity entry in data set [3] is listed as “Toxic”; in data set [4], “Toxic”; in data set [1] it was 35.5%; in data set [5] it was “Toxic”.
For the molecule `CCNC(=O)c1ccccc1C(=O)NC(C)C(=O)NCC` (centres undefined), the Activity stood at 46.5% in data set [6] and 48.6% in data set [7].
For `CCNC(=O)C(C)N1C(=O)c2cccc3cccc(c23)C1=O` (centres undefined), the Activity was 4.5% in data set [1] and 29.3% in data set [2].
`CCNC(=O)C(C)N1C(=O)c2ccccc2C1=O` (centres undefined): the Activity result in data set [3] is “Toxic”; in data set [4] it was “Toxic”; in data set [1], 35.5%; in data set [5], “Toxic”.
Turning to `CC(C(=O)NCc1ccccc1)n1c(=O)c2ccccc2c2ccccc2c1=O` (centres undefined), the Activity in data set [1] was 4.5%; in data set [2], 29.3%.
In the case of `CC(C(=O)NCCc1ccccc1)N1C(=O)c2ccccc2C1=O` (centres undefined), the Activity result in data set [3] is on record as “Toxic”; in data set [4], “Toxic”; in data set [1] it was 35.5%; in data set [5] it was “Toxic”.
